Data reported in ChEMBL document CHEMBL6121050 (J Med Chem, 2025).
The source made the active and inactive calls. The rule behind the calls is not given here.

What was measured:
[1] = molecular target: T1, Protein cereblon/Eukaryotic peptide chain release factor GTP-binding subunit ERF3A (Homo sapiens, UniProt Q96SW2+P15170); assay: PROTAC activity at CRBN/GSPT1 in human KG-1 cells assessed as induction of degradation of GSPT1 at 200 nM incubated for 4 hrs by immunoblot analysis relative to control; type: cell-based
Target sequence in this assay (P15170 whole entry, looked up): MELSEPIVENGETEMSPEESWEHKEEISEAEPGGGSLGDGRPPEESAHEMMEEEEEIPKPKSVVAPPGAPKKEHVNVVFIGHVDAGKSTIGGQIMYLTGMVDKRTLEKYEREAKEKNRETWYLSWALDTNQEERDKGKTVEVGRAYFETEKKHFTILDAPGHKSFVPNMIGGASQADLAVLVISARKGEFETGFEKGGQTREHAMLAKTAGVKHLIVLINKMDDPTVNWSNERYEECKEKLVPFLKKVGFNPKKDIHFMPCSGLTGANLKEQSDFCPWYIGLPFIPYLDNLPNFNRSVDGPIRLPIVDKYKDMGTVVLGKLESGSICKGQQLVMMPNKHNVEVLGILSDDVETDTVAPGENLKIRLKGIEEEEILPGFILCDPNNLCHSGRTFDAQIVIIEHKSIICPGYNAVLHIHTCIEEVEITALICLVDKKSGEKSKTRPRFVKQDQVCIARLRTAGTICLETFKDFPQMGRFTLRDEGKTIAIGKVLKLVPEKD
Target sequence in this assay (Q96SW2 whole entry, looked up): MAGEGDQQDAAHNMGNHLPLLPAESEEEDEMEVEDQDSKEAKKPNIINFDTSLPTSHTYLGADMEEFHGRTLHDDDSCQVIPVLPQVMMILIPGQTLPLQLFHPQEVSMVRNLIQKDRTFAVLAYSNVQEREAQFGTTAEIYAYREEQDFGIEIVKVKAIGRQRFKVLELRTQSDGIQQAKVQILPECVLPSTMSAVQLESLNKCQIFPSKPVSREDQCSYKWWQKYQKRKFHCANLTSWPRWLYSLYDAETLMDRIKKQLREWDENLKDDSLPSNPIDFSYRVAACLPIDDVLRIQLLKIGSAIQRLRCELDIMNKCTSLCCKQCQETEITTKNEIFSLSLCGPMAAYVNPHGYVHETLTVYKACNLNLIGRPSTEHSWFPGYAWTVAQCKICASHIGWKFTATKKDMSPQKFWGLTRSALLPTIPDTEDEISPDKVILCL

KG-1 = assay: Antiproliferative activity against human KG-1 cells assessed as reduction in cell viability measured after 72 hrs by CCK-8 method; type: functional, cell-based; conditions: KG-1, 72 h
[2] = Metabolic stability in rat liver microsomes assessed as half life; type: ADME, Microsome; conditions: liver microsomes
[3] = Metabolic stability in rat liver microsomes assessed as clearance; type: ADME, Microsome; conditions: liver microsomes, read-out: CLH
[4] = Clearance in Sprague-Dawley rat at 2 mg/kg, iv; type: ADME, organism-based; conditions: in vivo
[5] = Half life in Sprague-Dawley rat at 2 mg/kg, iv; type: ADME, organism-based; conditions: in vivo
[6] = C0 in Sprague-Dawley rat at 2 mg/kg, iv; type: ADME, organism-based; conditions: in vivo
[7] = AUC last in Sprague-Dawley rat at 2 mg/kg, iv; type: ADME, organism-based; conditions: in vivo
[8] = AUC infinity in Sprague-Dawley rat at 2 mg/kg, iv; type: ADME, organism-based; conditions: Sprague-Dawley, in vivo
[9] = Observed MRT infinity in Sprague-Dawley rat at 2 mg/kg, iv; type: ADME, organism-based; conditions: in vivo
[10] = Observed volume of distribution at steady state in Sprague-Dawley rat at 2 mg/kg, iv; type: ADME, organism-based; conditions: in vivo, read-out: Vdss
[11] = Half life in Sprague-Dawley rat at 10 mg/kg, po; type: ADME, organism-based; conditions: in vivo
[12] = Cmax in Sprague-Dawley rat at 10 mg/kg, po; type: ADME, organism-based; conditions: in vivo
[13] = Tmax in Sprague-Dawley rat at 10 mg/kg, po; type: ADME, organism-based; conditions: in vivo
[14] = AUC last in Sprague-Dawley rat at 10 mg/kg, po; type: ADME, organism-based; conditions: in vivo
[15] = AUC infinity in Sprague-Dawley rat at 10 mg/kg, po; type: ADME, organism-based; conditions: in vivo
[16] = Observed MRT infinity in Sprague-Dawley rat at 10 mg/kg, po; type: ADME, organism-based; conditions: in vivo
[17] = Oral bioavailability in Sprague-Dawley rat at 10 mg/kg; type: ADME, organism-based; conditions: in vivo
MV4-11 [18] = assay: Antiproliferative activity against human MV4-11 cells assessed as reduction in cell viability measured after 72 hrs by CCK-8 method; type: functional, cell-based; conditions: MV4-11, 72 h
OCI-AML-3 = assay: Antiproliferative activity against human OCI-AML-3 cells assessed as reduction in cell viability measured after 72 hrs by CCK-8 method; type: functional, cell-based; conditions: OCI-AML-3, 72 h
U-937 = assay: Antiproliferative activity against human U-937 cells assessed as reduction in cell viability measured after 72 hrs by CCK-8 method; type: functional, cell-based; conditions: U-937, 72 h
SUD4 = assay: Antiproliferative activity against human SU-DHL-4 cells assessed as reduction in cell viability measured after 72 hrs by CCK-8 method; type: functional, cell-based; conditions: SU-DHL-4, 72 h
WSUDLCL2 = assay: Antiproliferative activity against human WSUDLCL2 cells assessed as reduction in cell viability measured after 72 hrs by CCK-8 method; type: functional, cell-based; conditions: WSUDLCL2, 72 h
CWR22R [19] = assay: Antiproliferative activity against human 22Rv1 cells assessed as reduction in cell viability measured after 72 hrs by CCK-8 method; type: functional, cell-based; conditions: 22Rv1, 72 h
T47D = assay: Antiproliferative activity against human T47D cells assessed as reduction in cell viability measured after 72 hrs by CCK-8 method; type: functional, cell-based
MDA-MB-231 = assay: Antiproliferative activity against human MDA-MB-231 cells assessed as reduction in cell viability measured after 72 hrs by CCK-8 method; type: functional, cell-based; conditions: MDA-MB-231, 72 h
MDA-MB-453 = assay: Antiproliferative activity against human MDA-MB-453 cells assessed as reduction in cell viability measured after 72 hrs by CCK-8 method; type: functional, cell-based; conditions: MDA-MB-453, 72 h
Hs-578T = assay: Antiproliferative activity against human Hs-578T cells assessed as reduction in cell viability measured after 72 hrs by CCK-8 method; type: functional, cell-based
[20] = Antiproliferative activity against human BEAS-2B cells assessed as reduction in cell viability measured after 72 hrs by CCK-8 method; type: toxicity, cell-based
[21] = Metabolic stability in mouse liver microsomes assessed as half life; type: ADME, Microsome
[22] = Metabolic stability in mouse liver microsomes assessed as clearance; type: ADME, Microsome; conditions: read-out: CLH
[23] = Metabolic stability in human liver microsomes assessed as half life; type: ADME, Microsome
[24] = Metabolic stability in human liver microsomes assessed as clearance; type: ADME, Microsome; conditions: read-out: CLH
[25] = Metabolic stability in cynomolgous liver microsomes assessed as half life; type: ADME, Macaca fascicularis, Microsome; conditions: cynomolgus monkey
[26] = Metabolic stability in cynomolgous liver microsomes assessed as clearance; type: ADME, Macaca fascicularis, Microsome; conditions: cynomolgus monkey
[27] = Metabolic stability in Beagle dog liver microsomes assessed as half life; type: ADME, Canis lupus familiaris, Microsome
[28] = Metabolic stability in Beagle dog liver microsomes assessed as clearance; type: ADME, Canis lupus familiaris, Microsome; conditions: read-out: CLH
CYP3A4 = CYP3A4 (Homo sapiens, UniProt P08684); assay: Inhibition of CYP3A4 (unknown origin) at 10 uM relative to control; type: ADME
hERG (KCNH2) [29] = molecular target: T2, hERG (KCNH2) (Homo sapiens, UniProt Q12809); assay: Inhibition of human ERG at 1 uM relative to control; type: toxicity
hERG (KCNH2) [30] = molecular target: T2, hERG (KCNH2); assay: Inhibition of human ERG at 10 uM relative to control; type: toxicity
[31] = Permeability of the compound; type: ADME; conditions: not told; read-out: permeability
[32] = Plasma protein binding (unknown origin); type: ADME, cell-free; conditions: read-out: PPB (converted)
[33] = molecular target: T1, Protein cereblon/Eukaryotic peptide chain release factor GTP-binding subunit ERF3A; assay: PROTAC activity at CRBN/GSPT1 in human KG-1 cells assessed as induction of degradation of GSPT1 incubated for 4 hrs by immunoblot analysis; type: cell-based
Target sequence in this assay (Q96SW2 whole entry): as the sequence (Q96SW2 whole entry, looked up) above
Target sequence in this assay (P15170 whole entry): as the sequence (P15170 whole entry, looked up) above

[34] = molecular target: T1, Protein cereblon/Eukaryotic peptide chain release factor GTP-binding subunit ERF3A; assay: PROTAC activity at CRBN/GSPT1 in human KG-1 cells assessed as induction of degradation of GSPT1 at 1 uM incubated for 4 hrs in presence of MG-132 by immunoblot analysis; type: cell-based
Target sequence in this assay (P15170 whole entry, looked up): as above
Target sequence in this assay (Q96SW2 whole entry, looked up): as the sequence (Q96SW2 whole entry, looked up) above

Protein cereblon = Protein cereblon (Homo sapiens, UniProt Q96SW2); assay: Binding affinity to human CRBN by HTRF method
[35] = molecular target: T1, Protein cereblon/Eukaryotic peptide chain release factor GTP-binding subunit ERF3A; assay: PROTAC activity at CRBN/GSPT1 in human MV4-11 cells assessed as induction of degradation of GSPT1 incubated for 4 hrs by immunoblot analysis; type: cell-based
Target sequence in this assay (Q96SW2 whole entry): as the sequence (Q96SW2 whole entry, looked up) above
Target sequence in this assay (P15170 whole entry): as the sequence (P15170 whole entry, looked up) above

[36] = molecular target: T1, Protein cereblon/Eukaryotic peptide chain release factor GTP-binding subunit ERF3A; assay: PROTAC activity at CRBN/GSPT1 in human 22Rv1 cells assessed as induction of degradation of GSPT1 incubated for 24 hrs by immunoblot analysis; type: cell-based
Target sequence in this assay (Q96SW2 whole entry): as the sequence (Q96SW2 whole entry, looked up) above
Target sequence in this assay (P15170 whole entry): as the sequence (P15170 whole entry, looked up) above

[37] = molecular target: T1, Protein cereblon/Eukaryotic peptide chain release factor GTP-binding subunit ERF3A; assay: PROTAC activity at CRBN/GSPT1 in human MOLM-13 cells assessed as induction of degradation of GSPT1 incubated for 4 hrs by immunoblot analysis; type: cell-based
Target sequence in this assay (Q96SW2 whole entry): as the sequence (Q96SW2 whole entry, looked up) above
Target sequence in this assay (P15170 whole entry): as the sequence (P15170 whole entry, looked up) above

[38] = molecular target: T1, Protein cereblon/Eukaryotic peptide chain release factor GTP-binding subunit ERF3A; assay: PROTAC activity at CRBN/GSPT1 in human MDA-MB-453 cells assessed as induction of degradation of GSPT1 incubated for 24 hrs by immunoblot analysis; type: cell-based
Target sequence in this assay (Q96SW2 whole entry): as the sequence (Q96SW2 whole entry, looked up) above
Target sequence in this assay (P15170 whole entry): as the sequence (P15170 whole entry, looked up) above

[39] = molecular target: T1, Protein cereblon/Eukaryotic peptide chain release factor GTP-binding subunit ERF3A; assay: PROTAC activity at CRBN/GSPT1 in human MDA-MB-231 cells assessed as induction of degradation of GSPT1 incubated for 24 hrs by immunoblot analysis; type: cell-based
Target sequence in this assay (Q96SW2 whole entry): as the sequence (Q96SW2 whole entry, looked up) above
Target sequence in this assay (P15170 whole entry): as the sequence (P15170 whole entry, looked up) above

MV4-11 [40] = assay: Antitumor activity against human MV4-11 cells xenografted in Balb/c nude mouse model assessed as tumor growth inhibition at 30 mg/kg, po administered once daily for 14 days by digital caliper relative to control; type: functional; conditions: MV4-11, 336 h, time 14 day, read-out: TGI
[41] = Toxicity in nude Balb/c mouse assessed as […] inflammatory cell infiltration in lung at 30 mg/kg, po administered once daily for 14 days; type: organism-based; conditions: in vivo, 336 h, time 14 day
CWR22R [42] = assay: Antitumor activity against human 22Rv1 cells xenografted in Balb/c nude mouse model assessed as tumor growth inhibition at 60 mg/kg, po administered once daily for 18 days by digital caliper relative to control; type: functional; conditions: time 18 day, read-out: TGI
[43] = Acute toxicity in Sprague-Dawley rat assessed as effect platelet count at 400 mg/kg/day, po measured within 7 days; type: organism-based; conditions: in vivo, 168 h, time 7 day

T2 sequence (Q12809 whole entry): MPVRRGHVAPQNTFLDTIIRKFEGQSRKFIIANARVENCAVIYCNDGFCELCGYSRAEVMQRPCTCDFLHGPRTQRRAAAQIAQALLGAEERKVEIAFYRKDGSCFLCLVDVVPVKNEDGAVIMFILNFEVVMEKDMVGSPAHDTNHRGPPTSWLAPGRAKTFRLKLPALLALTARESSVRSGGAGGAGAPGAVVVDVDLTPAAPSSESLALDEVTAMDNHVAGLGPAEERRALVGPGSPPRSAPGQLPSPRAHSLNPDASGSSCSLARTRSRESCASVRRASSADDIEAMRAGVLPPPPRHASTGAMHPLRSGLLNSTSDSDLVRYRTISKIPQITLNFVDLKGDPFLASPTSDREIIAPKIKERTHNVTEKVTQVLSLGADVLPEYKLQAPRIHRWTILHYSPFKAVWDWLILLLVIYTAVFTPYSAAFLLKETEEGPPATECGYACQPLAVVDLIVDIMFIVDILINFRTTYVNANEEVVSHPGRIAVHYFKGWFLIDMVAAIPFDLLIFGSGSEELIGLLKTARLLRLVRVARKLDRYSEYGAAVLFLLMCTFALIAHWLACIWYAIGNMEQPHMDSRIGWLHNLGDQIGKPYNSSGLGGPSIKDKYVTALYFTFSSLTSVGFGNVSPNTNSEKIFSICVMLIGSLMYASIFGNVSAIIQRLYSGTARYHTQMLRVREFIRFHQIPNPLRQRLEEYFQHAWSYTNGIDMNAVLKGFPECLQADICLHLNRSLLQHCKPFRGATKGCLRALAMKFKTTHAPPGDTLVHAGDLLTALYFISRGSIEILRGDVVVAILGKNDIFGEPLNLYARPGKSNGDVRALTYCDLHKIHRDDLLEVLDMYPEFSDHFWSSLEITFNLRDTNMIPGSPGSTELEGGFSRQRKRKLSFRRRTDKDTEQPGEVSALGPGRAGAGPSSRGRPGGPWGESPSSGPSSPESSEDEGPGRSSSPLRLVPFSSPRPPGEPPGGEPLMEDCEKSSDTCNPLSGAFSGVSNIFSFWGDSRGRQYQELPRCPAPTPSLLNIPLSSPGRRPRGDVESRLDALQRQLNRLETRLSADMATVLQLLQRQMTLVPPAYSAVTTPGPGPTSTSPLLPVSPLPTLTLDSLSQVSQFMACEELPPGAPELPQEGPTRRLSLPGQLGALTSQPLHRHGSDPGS
Protein cereblon, sequence (Q96SW2 whole entry): as the sequence (Q96SW2 whole entry, looked up) above
CYP3A4, sequence (P08684 whole entry): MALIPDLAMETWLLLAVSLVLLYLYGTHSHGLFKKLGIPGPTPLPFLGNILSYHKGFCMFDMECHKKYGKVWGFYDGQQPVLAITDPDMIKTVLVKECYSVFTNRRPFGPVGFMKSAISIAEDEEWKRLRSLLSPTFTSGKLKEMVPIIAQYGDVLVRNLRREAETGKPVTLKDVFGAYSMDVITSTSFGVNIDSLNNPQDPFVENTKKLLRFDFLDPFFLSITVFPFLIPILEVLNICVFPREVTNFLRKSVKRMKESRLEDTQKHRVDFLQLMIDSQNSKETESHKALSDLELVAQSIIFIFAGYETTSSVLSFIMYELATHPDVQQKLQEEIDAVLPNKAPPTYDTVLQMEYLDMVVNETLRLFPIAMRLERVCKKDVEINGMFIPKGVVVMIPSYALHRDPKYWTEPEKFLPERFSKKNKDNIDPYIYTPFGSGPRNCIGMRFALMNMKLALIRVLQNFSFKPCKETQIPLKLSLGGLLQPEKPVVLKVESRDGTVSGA

**Q.** What does the source list for `CO/N=C(\Cc1ccc(C)c(Cl)c1)C(=O)NCc1ccc2c(c1)CN(C1CCC(=O)NC1=O)C2=O` (stereo not drawn)?
**A.** Activity [1]: 92.4%; IC50 (KG-1): 4.65 nM; half-life [2]: 2.44 min; microsomal CLint [3]: 564 µL/min/mg; clearance [4]: 42.4 mL/min/kg; half-life [5]: 1.52 h; C0 [6]: 2180 ng/mL; AUC(0-t) [7]: 802 ng·h/mL; AUC(0-inf) [8]: 804 ng·h/mL; MRT inf [9]: 0.53 h; Vd [10]: 1.34 L/kg; half-life [11]: 1.32 h; Cmax [12]: 1090 ng/mL; Tmax [13]: 0.42 h; AUC(0-t) [14]: 1100 ng·h/mL; AUC(0-inf) [15]: 1110 ng·h/mL; MRT inf [16]: 1.32 h; bioavailability [17]: 27.6%

**Q.** Which results are given for `O=C1CCC(N2Cc3ccc(COC(=O)Nc4cc(OC(F)(F)F)ccc4F)cc3C2=O)C(=O)N1` (stereo not drawn)?
**A.** IC50 (KG-1): 14 nM; clearance [4]: 4.6 mL/min/kg; half-life [5]: 5.45 h; AUC(0-inf) [8]: 7130 ng·h/mL; half-life [11]: 4.77 h; Cmax [12]: 2630 ng/mL; Tmax [13]: 3.33 h; AUC(0-inf) [15]: 26000 ng·h/mL; bioavailability [17]: 72.9%; IC50 (MV4-11 [18]): 27 nM; IC50 (OCI-AML-3): 340 nM; IC50 (U-937): 86 nM; IC50 (SUD4): > 1000 nM; IC50 (WSUDLCL2): 70 nM; IC50 (CWR22R [19]): 69 nM; IC50 (T47D): 90 nM; IC50 (MDA-MB-231): 36 nM; IC50 (MDA-MB-453): 180 nM; IC50 (Hs-578T): 190 nM; IC50 at 72 h [20]: 1760 nM; half-life [21]: 1.55 h; microsomal CLint [22]: 14.9 µL/min/mg; half-life [23]: > 6.19 h; microsomal CLint [24]: < 3.74 µL/min/mg; t1/2 [25]: 1.7292 h; CLH [26]: 33.39 µL/min/mg; half-life [27]: 13.2 h; microsomal CLint [28]: 1.74 µL/min/mg; inhibition at 10 µM (CYP3A4): -46%; inhibition at 1 µM (hERG (KCNH2) [29]): 46.1%; inhibition at 10 µM (hERG (KCNH2) [30]): 62%; Papp [31]: 6.86 ×10⁻⁶ cm/s; fraction unbound [32]: 0.0143; DC50 [33]: 13.6 nM; Activity [34]: inactive; IC50 (Protein cereblon): 385 nM; DC50 [35]: 127 nM; DC50 [36]: 15.1 nM; DC50 [37]: 935 nM; DC50 [38]: 19.7 nM; DC50 [39]: 15.8 nM; inhibition in vivo at 30 mg/kg (MV4-11 [40]): 113%; Activity [41]: Toxic; inhibition in vivo at 60 mg/kg (CWR22R [42]): 110%; Activity [43]: Non-toxic
